This assay addresses T1, L-Selectin (Homo sapiens, UniProt P14151).
T1 construct: purchased Research and Development Systems 728-LS
T1 sequence (P14151 39-332 limits assumed): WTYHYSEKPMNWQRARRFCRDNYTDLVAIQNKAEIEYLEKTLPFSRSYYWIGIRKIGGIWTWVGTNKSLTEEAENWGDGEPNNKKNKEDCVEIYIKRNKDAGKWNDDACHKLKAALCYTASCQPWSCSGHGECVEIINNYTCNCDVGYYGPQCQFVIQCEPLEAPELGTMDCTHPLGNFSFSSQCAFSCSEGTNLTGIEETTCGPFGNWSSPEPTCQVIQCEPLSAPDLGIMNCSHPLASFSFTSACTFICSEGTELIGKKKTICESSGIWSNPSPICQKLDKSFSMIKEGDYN
In words: ELISA: inhibition of L-selectin/IgG binding to immobilized heparin (Heparin-BSA). The note with it: L-Selectin binding to heparin. The procedure: The inhibitory effect of the compounds of the present invention can be evaluated by several methods in vitro. One assay for measuring GAG-ECAM binding, exemplified herein below, detects the binding of L selectin/IgG to immobilized heparin. Another assay utilizes immobilized L-selectin, or L-selectin fused to protein domains other than IgG. The amount of bound L-selectin is determined by an ELISA assay using, for example, a monoclonal antibody raised against L-selectin, which is conjugated to horseradish peroxidase. […] The Dregg-55 antibody was also shown to inhibit L-selectin-dependent adhesion in vitro, neutrophil accumulation in vitro and inflammation in vivo (Co M. S. et al, Immunotechnology 493: 253-266, 1999).
An in vitro assay was used to assess the ability of test compounds according to formula I to inhibit the interactions of L-selectin with HS-GAGs. The assay was suitable for determining the concentration required for 50% inhibition (IC-50) for each specific compound. In the assay, the GAG used was heparin. Thus, porcine intestinal mucosa heparin conjugated to Bovine Serum Albumin (Heparin-BSA; Sigma Cat. No. H0403) at […] in Phosphate Buffered Saline (PBS; pH 6.5) was added to a 96 well polystyrene ELISA plate (NUNC Cat. No. 442404; 0.1 ml per well) and incubated Over Night (ON) at 4° C. Following the incubation, the plate was washed thoroughly, by immersion, with de-ionized water and PBS (pH 6.5). The ELISA plate was then blocked with BSA (ICN Cat. No.160069, 3%, 200 μl per well) for 1 hour at Room Temperature (RT). Following blocking, the plate was washed with de-ionized water, and then with PBS (pH 6.5) containing Tween 20 (Sigma Cat. No. P-1379, 0.05%). Compounds were synthesized or purchased from ChemDiv Labs (San Diego, Calif.), dissolved in DMSO, diluted in PBS and added to the wells at various concentrations in the range of 0.01 to 300 μM. Recombinant Human L-Selectin/IgG (Research and Development Systems Cat. No.728-LS) dissolved in PBS supplemented with BSA (0.1%) and calcium chloride (1 mM) was added to the ELISA plate (100 μl per well) and incubated for 60 minutes at RT with shaking. Following incubation, the plate was washed with de-ionized water and three times with PBS (pH 6.5) containing Tween 20. Anti-Human IgG Peroxidase Conjugate (1:5000; Sigma Product No. A8667) diluted in PBS supplemented with BSA (0.1%) and calcium chloride (1 mM) was added to the ELISA plate (100 μl per well) and incubated for 30 minutes at RT with shaking. The plate was then washed with de-ionized water and three times with PBS (pH 6.5) containing Tween 20. The peroxidase substrate cromogen, TMB (Dako Cat. No. S1599) was added (100 μl per well) to the ELISA plate and incubated at room temperature. After 15 minutes ELISA Stop Solution (hydrochloric acid 1N, sulfuric acid 3N) was added (200 μl per well) to stop the peroxidase catalyzed colorimetric reaction. The Optical Density (OD) of the samples was measured at 450 nm using an ELISA plate reader (Dynatech MR5000). Data were analyzed with Graphpad Prism software and IC-50 values were established. The P-selectin assay was carried out in a similar fashion, except that Recombinant Human P-Selectin/IgG (Research and Development Systems Cat.No.137-PS) was used.
For orientation: ELISA stands for enzyme-linked immunosorbent assay.

`COCCN(CCOC)S(=O)(=O)c1ccc(C(=O)Nc2sc3c(c2C(N)=O)CC(C)(C)NC3(C)C)cc1` [Compound 26]: the inhibition (in general, the percentage by which the read-out fell short of the control) at 50 µM came to 23%.

For the molecule `CCOC(=O)c1c(NC(=O)c2ccc(S(=O)(=O)N3CCCCCC3)cc2)sc2c1CC(C)(C)NC2(C)C` [Compound 18], the IC50 (commonly the concentration needed to halve the response being measured) was 11 µM.

Molecule `CCCCN(CCCC)S(=O)(=O)c1ccc(C(=O)Nc2sc3c(c2-c2nc4ccccc4s2)CCN(C)C3)cc1` [Compound 31] returned an inhibition at 50 µM of 27%.

`CC(C)N1CCc2c(sc(NC(=O)c3ccc(S(=O)(=O)N4CCCCC4)cc3)c2-c2nc3ccccc3s2)C1` [Compound 44] displayed an inhibition at 50 µM of 29%.

`CC1CCN(S(=O)(=O)c2ccc(C(=O)Nc3sc4c(c3-c3nc5ccccc5s3)CCN(C)C4)cc2)CC1` [Compound 38] came in with an inhibition at 50 µM of 33%.

Consider `CCN1CCc2c(sc(NC(=O)c3ccc(S(=O)(=O)N(CC)Cc4ccccc4)cc3)c2C(N)=O)C1` [Compound 28, 2-[[4-[[ethyl(phenylmethyl)amino]sulfonyl]benzoyl]amino]-6-ethyl-4,5,6,7-tetrahydrothieno[2,3-c]pyridine-3-carboxamide], for which the inhibition at 50 µM was 63%.

The molecule `C=CCN(CC=C)S(=O)(=O)c1ccc(C(=O)Nc2sc3c(c2-c2nc4ccccc4s2)CCN(C)C3)cc1` [Compound 34] came in with an inhibition at 50 µM of 25%.

Consider `CC(C)N1CCc2c(sc(NC(=O)c3ccc(S(=O)(=O)N4CCCCC4C)cc3)c2-c2nc3ccccc3s2)C1` (stereo not shown) [Compound 45], for which testing at 50 µM gave an inhibition of 24%.

With `CCN(CC)S(=O)(=O)c1ccc(C(=O)Nc2sc3c(c2C(N)=O)CC(C)(C)NC3(C)C)cc1` [Compound 22], the inhibition at 50 µM is 35%.

As to `CC1CCCN(S(=O)(=O)c2ccc(C(=O)Nc3sc4c(c3-c3nc5ccccc5s3)CCN(C)C4)cc2)C1` (stereo not shown) [Compound 37], 50 µM produced 23% inhibition.

For the molecule `CCCCN(CC)S(=O)(=O)c1ccc(C(=O)Nc2sc3c(c2-c2nc4ccccc4s2)CCN(C(C)C)C3)cc1` [Compound 42], 50 µM produced 27% inhibition.

For the molecule `CN(C1CCCCC1)S(=O)(=O)c1ccc(C(=O)Nc2sc3c(c2C(N)=O)CC(C)(C)NC3(C)C)cc1` [Compound 21], the IC50 was determined as 36 µM.

Take `CCOC(=O)N1CCN(S(=O)(=O)c2ccc(C(=O)Nc3sc4c(c3C(N)=O)CC(C)(C)NC4(C)C)cc2)CC1` [Compound 24]: testing at 50 µM gave an inhibition of 29%.

Consider `CN1CCc2c(sc(NC(=O)c3ccc(S(=O)(=O)N4CCCC4)cc3)c2-c2nc3ccccc3s2)C1` [Compound 35], for which the inhibition at 50 µM is 24%.

For `COCCN(CCOC)S(=O)(=O)c1ccc(C(=O)Nc2sc3c(c2-c2nc4ccccc4s2)CCN(C)C3)cc1` [Compound 4], the inhibition at 50 µM worked out at 43%.

The molecule `CCCN(CCC)S(=O)(=O)c1ccc(C(=O)Nc2sc3c(c2-c2nc4ccccc4s2)CCN(C)C3)cc1` [Compound 30] displayed an inhibition at 50 µM of 21%.

`C=CCN(CC=C)S(=O)(=O)c1ccc(C(=O)Nc2sc3c(c2-c2nc4ccccc4s2)CCN(CC)C3)cc1` [Compound 41] showed an inhibition at 50 µM of 25%.

`CCCCN(C)S(=O)(=O)c1ccc(C(=O)Nc2sc3c(c2C(N)=O)CC(C)(C)NC3(C)C)cc1` [Compound 23] yielded an inhibition at 50 µM of 39%.

In turn, `CC(C)N1CCc2c(sc(NC(=O)c3ccc(S(=O)(=O)N(C)c4ccccc4)cc3)c2C(N)=O)C1` [Compound 13] gave an inhibition at 50 µM of 68%.

In the case of `CCCN(CCC)S(=O)(=O)c1ccc(C(=O)Nc2sc3c(c2-c2nc4ccccc4s2)CCN(CC)C3)cc1` [Compound 40], the inhibition at 50 µM amounted to 25%.

In turn, `C=CCN(CC=C)S(=O)(=O)c1ccc(C(=O)Nc2sc3c(c2-c2nc4ccccc4s2)CCN(C(C)C)C3)cc1` [Compound 43] gave an inhibition at 50 µM of 17%.

In turn, `CCN1CCc2c(sc(NC(=O)c3ccc(S(=O)(=O)N4CCCCCC4)cc3)c2-c2nc3ccccc3s2)C1` [Compound 8] displayed an inhibition at 50 µM of 46%.

On to `CN1CCc2c(sc(NC(=O)c3ccc(S(=O)(=O)N4CCOCC4)cc3)c2-c2nc3ccccc3s2)C1` [Compound 9], for which the inhibition at 50 µM came to 52%.

The molecule `CCN1CCc2c(sc(NC(=O)c3ccc(S(=O)(=O)N4CCN(C)CC4)cc3)c2C(N)=O)C1` [Compound 29, 2-[[4-[(4-methyl-1-piperazinyl)sulfonyl]benzoyl]amino]-6-ethyl-4,5,6,7-tetrahydrothieno[2,3-c]pyridine-3-carboxamide] displayed an inhibition at 50 µM of 30%.

For `C=CCN(CC=C)S(=O)(=O)c1ccc(C(=O)Nc2sc3c(c2C(=O)OC)CC(C)(C)NC3(C)C)cc1` [Compound 19], the IC50 came out at 43 µM.

Take `CC(C)N1CCc2c(sc(NC(=O)c3ccc(S(=O)(=O)N4CCOCC4)cc3)c2-c2nc3ccccc3s2)C1` [Compound 10]: the IC50 is 25 µM.

Molecule `CCOC(=O)c1c(NC(=O)c2ccc(S(=O)(=O)N(CC)CC)cc2)sc2c1CC(C)(C)NC2(C)C` [Compound 20] gave an IC50 of 26 µM.

Take `CCCCN(CC)S(=O)(=O)c1ccc(C(=O)Nc2sc3c(c2-c2nc4ccccc4s2)CCN(C)C3)cc1` [Compound 33]: the inhibition at 50 µM was 21%.

In the case of `CN1CCc2c(sc(NC(=O)c3ccc(S(=O)(=O)N4CCCCC4)cc3)c2-c2nc3ccccc3s2)C1` [Compound 36], at 50 µM the inhibition was 26%.

For `CCOC(=O)c1c(NC(=O)c2ccc(S(=O)(=O)N3CCCc4ccccc43)cc2)sc2c1CCN(C(C)C)C2` [Compound 16], the IC50 came out at 11 µM.

For `CC1CC(C)CN(S(=O)(=O)c2ccc(C(=O)Nc3sc4c(c3-c3nc5ccccc5s3)CCN(C)C4)cc2)C1` (stereo not shown) [Compound 39], 50 µM produced 24% inhibition.

In turn, `CCN1CCc2c(sc(NC(=O)c3ccc(S(=O)(=O)N(C)c4ccccc4)cc3)c2C(=O)NC)C1` [Compound 27] gave an IC50 of 9 µM.

`CCOC(=O)c1c(NC(=O)c2ccc(S(=O)(=O)N3CCN(C(=O)OCC)CC3)cc2)sc2c1CCN(C(C)C)C2` [Compound 17] registered an inhibition at 50 µM of 21%.

Take `CCCCN(CC)S(=O)(=O)c1ccc(C(=O)Nc2sc3c(c2C(N)=O)CCN(C(C)C)C3)cc1` [Compound 12]: the inhibition at 50 µM came to 55%.

Consider `CCCCN(C)S(=O)(=O)c1ccc(C(=O)Nc2sc3c(c2-c2nc4ccccc4s2)CCN(C)C3)cc1` [Compound 32], for which at 50 µM the inhibition was 26%.

Molecule `CCN(CC)S(=O)(=O)c1ccc(C(=O)Nc2sc3c(c2-c2nc4ccccc4s2)CCN(C(C)C)C3)cc1` [Compound 3] displayed an IC50 of 10 µM.

For the molecule `CC1CC(C)CN(S(=O)(=O)c2ccc(C(=O)Nc3sc4c(c3C(N)=O)CCN(C(C)C)C4)cc2)C1` (stereo not shown) [Compound 14], 50 µM produced 35% inhibition.

As for `CCCCN(C)S(=O)(=O)c1ccc(C(=O)Nc2sc3c(c2C(=O)OCC)CCN(C(C)C)C3)cc1` [Compound 15], the inhibition at 50 µM was found to be 40%.

In turn, `CCN(CC)S(=O)(=O)c1ccc(C(=O)Nc2sc3c(c2-c2nc4ccccc4s2)CCN(C)C3)cc1` [Compound 2] gave an inhibition at 50 µM of 60%.

`CN1CCc2c(sc(NC(=O)c3ccc(S(=O)(=O)N(C)c4ccccc4)cc3)c2-c2nc3ccccc3s2)C1` [Compound 6] came in with an inhibition at 50 µM of 44%.

The record behind these values is US7365080B2, “Pharmaceutical compositions comprising thieno[2,3-c]pyridine derivatives and use thereof” (Rimonyx Pharmaceuticals Ltd., priority 2003, dated 2008).
